# From patent publication US20190382346A1, “(NITRO-PHENYL)-NITROPYRIDINE COMPOUNDS FOR TREATING SYNUCLEINOPATHIES” (UNIVERSITAT AUTONOMA DE BARCELONA, priority 2017, published 2019)
# Tests used:
# [1] = biological target: T1, human A30P mutant α-synuclein (Homo sapiens, UniProt P37840, A30P); test: thioflavin-T aggregation assay, A30P mutant; format: biochemical; conditions: 100 μM compound, 70 μM α-synuclein, 24 h
# T1 construct: made in house; host or cells: E. coli BL21 (DE3)
# Procedure: (§1) Previously lyophilized α-synuclein was carefully dissolved in PBS buffer to a final concentration of 210 μM and filtered through a Millipore s 0.22-μm filter. α-synuclein aggregation assay was performed in a 96 wells plate (non-treated, black plastic) containing in each well a Teflon polyball (3.175 mm in diameter), 40 μM thioflavin-T, 70 μM α-synuclein, 100 μM of the tested compound and PBS up to a final volume of 150 μL. Plates were fixed into an orbital culture shaker Max-Q 4000 Thermo Scientific to keep the incubation at 37° C., 100 rpm. Every 2 hours, the fluorescence intensity was measured using a Victor3.0 Multilabel Reader by exciting the mixtures with 430-450 filter and collecting the emission intensity with 480-510 filter (triplicates for each measurement). Each plate contained 3 α-synuclein controls in the absence of any compound. The averaged Th-T fluorescence obtained for these wells at the end of the experiment was normalized to 1 and the kinetic curves in the different wells re-scaled accordingly. Re-scaled curves were used to compare the controls with the effect of the tested compound and to ensure that the controls were reproducible between different experiments. […] After 2 weeks, scattering of the samples was analyzed at 300 nm and 340 nm using a Varian fluorimeter. […] Every 2 hours, the thioflavin-T fluorescence intensity was measured as described above.
# [2] = test system: human wild-type α-synuclein fused to yellow fluorescent protein (YFP); test: C. elegans α-synuclein aggregation model; format: in vivo; conditions: 10 μM compound, 5 days from L4 stage, strain NL5901
# Procedure: α-synuclein aggregation was assessed using an C. elegans in vivo model described by (Van Ham et al., 2008) and (Muñoz-Lobato et al., 2014).
# The nematode strain NL5901, unc-119(ed3) III; [pkls2386 (Punc-54::α-syn::yfp; unc-119(+))] was obtained from the Caenorhabditis elegans Genetic Center (CGC), University of Minnesota, USA. The strain expresses a fusion of human wildtype α-synuclein and yellow fluorescent protein (YFP) in body wall muscle cells. The nematodes were maintained using standard procedures, grown in NGM agar plates and fed with E coli (OP50 strain). Adult worms were bleached to get synchronized nematode cultures. NGM-agar plates with a) DMSO only (vehicle) and b) 10 μM final concentration of the tested compound were prepared. Afterwards, OP50 containing a) or b) was added to NGM plates and let dry for 24 h. […] After 5 days of development (L4+5) the numbers of α-synuclein aggregates were determined using a fluorescence microscope. […] The same section in each animal was analyzed and captured in stacks to include aggregates contained from the top to the bottom of each animal ([…], 25 stacks). Image analysis was performed using ImageJ software, from the Z MAX acquisition, quantifying the number of α-synuclein-YFP aggregates. Final quantification and statistics was performed by the Graph Pad Prism 6.0 software, comparing vehicle-treated worms with drug-treated animals. […]
# [3] = biological target: T2, human wild-type α-synuclein (Homo sapiens, UniProt P37840); test: α-synuclein aggregation scattering assay; format: biochemical; conditions: 100 μM compound, 70 μM α-synuclein, 2 weeks, 37° C., 600 rpm
# T2 construct: made in house; host or cells: E. coli BL21 (DE3)
# Procedure: Previously lyophilized α-synuclein was carefully dissolved in PBS buffer to a final concentration of 210 μM and filtered through a Millipore s 0.22-μm filter. α-synuclein aggregation assay was performed in a 96 wells plate (non-treated, black plastic) containing in each well a Teflon polyball (3.175 mm in diameter), 40 μM thioflavin-T, 70 μM α-synuclein, 100 μM of the tested compound and PBS up to a final volume of 150 μL. Plates were fixed into an orbital culture shaker Max-Q 4000 Thermo Scientific to keep the incubation at 37° C., 100 rpm. Every 2 hours, the fluorescence intensity was measured using a Victor3.0 Multilabel Reader by exciting the mixtures with 430-450 filter and collecting the emission intensity with 480-510 filter (triplicates for each measurement). Each plate contained 3 α-synuclein controls in the absence of any compound. The averaged Th-T fluorescence obtained for these wells at the end of the experiment was normalized to 1 and the kinetic curves in the different wells re-scaled accordingly. Re-scaled curves were used to compare the controls with the effect of the tested compound and to ensure that the controls were reproducible between different experiments. […] After 2 weeks, scattering of the samples was analyzed at 300 nm and 340 nm using a Varian fluorimeter. […]
# [4] = biological target: T3, human H50Q mutant α-synuclein (Homo sapiens, UniProt P37840, H50Q); test: thioflavin-T aggregation assay, H50Q mutant; format: biochemical; conditions: 100 μM compound, 70 μM α-synuclein, 24 h
# T3 construct: made in house; host or cells: E. coli BL21 (DE3)
# Procedure: as §1
# [5] = biological target: T4, α-synuclein fibrils (Homo sapiens, UniProt P37840); test: Transmission Electron Microscopy of α-synuclein fibrils at end of aggregation reaction; format: biochemical; conditions: end of the aggregation reaction
# T4 construct: made in house; host or cells: E. coli BL21 (DE3)
# Procedure: α-synuclein fibers from final point reaction (either in absence or presence of the final concentration inhibitors) were collected in Eppendorfs. After diluting the aggregated α-synuclein to a concentration of 10 μM α-synuclein, each sample was sonicated for 10 minutes. 5 μL of these samples were placed on carbon-coated copper grids and allowed to stand for 5 minutes. Then, samples were carefully dried with filter paper to remove the excess of sample. Grids were washed twice with MiliQ water by immersion and stained by incubating grids with 5 μL 2% (w/v) uranyl acetate for 2 minutes for the negative staining. After removal of the uranyl acetate excess with filter paper, grids were let to air-dry for 10 minutes. The samples were imaged using a Jeol 1400 Transmission Electron Microscopy operating at an accelerating voltage of 120 kV. 30 fields were screened at least, to obtain representative images.
# [6] = biological target: T2, human wild-type α-synuclein; test: α-synuclein aggregation and thioflavin-T assay; format: biochemical
# Procedure: Previously lyophilized α-synuclein was carefully dissolved in PBS buffer to a final concentration of 210 μM and filtered through a Millipore s 0.22-μm filter. α-synuclein aggregation assay was performed in a 96 wells plate (non-treated, black plastic) containing in each well a Teflon polyball (3.175 mm in diameter), 40 μM thioflavin-T, 70 μM α-synuclein, 100 μM of the tested compound and PBS up to a final volume of 150 μL. Plates were fixed into an orbital culture shaker Max-Q 4000 Thermo Scientific to keep the incubation at 37° C., 100 rpm. Every 2 hours, the fluorescence intensity was measured using a Victor3.0 Multilabel Reader by exciting the mixtures with 430-450 filter and collecting the emission intensity with 480-510 filter (triplicates for each measurement). Each plate contained 3 α-synuclein controls in the absence of any compound. The averaged Th-T fluorescence obtained for these wells at the end of the experiment was normalized to 1 and the kinetic curves in the different wells re-scaled accordingly. Re-scaled curves were used to compare the controls with the effect of the tested compound and to ensure that the controls were reproducible between different experiments. For the titration assay, different concentrations of tested compound (200, 150, 100, 75 and 25 μM) were used. For the scattering assay, 70 μM α-synuclein, 100 μM of the tested compound or DMSO (in control samples) and PBS up to a final volume of 1 mL were incubated in low-binding plastic tubes (Protein LoBind Tube 1.5 mL, Eppendorf) using a thermomixer (Thermomixer comfort, Eppendorf) at 37° C. and 600 rpm. After 2 weeks, scattering of the samples was analyzed at 300 nm and 340 nm using a Varian fluorimeter.
# Each sample was tested in triplicate. Each plate contained an also triplicated control without tested compound.
# In the aggregation assay described above, α-synuclein aggregates within approximately 24 h with a sigmoidal aggregation curve.
# [7] = in vitro; format: cell-based; conditions: human
# Procedure: Cultured cells of human neuroblastoma cell line SH-SY5Y were incubated for 72 h with either the vehicle (DMSO) or with different concentrations of the compound. Then, the cells were incubated with a cell viability indicator (PrestoBlue® Cell Viability Reagent). The modification of PrestoBlue® Cell Viability Reagent by the reducing environment of viable cells turns the dye red in color becoming highly fluorescent. This color change can be detected measuring fluorescence by exciting at 531 nm and detecting emission at 615 nm. The CC50 of compound D (concentration that caused death in 50% of the cells, i.e. reduction to 50% viability) was >700 μM (FIG. 6).
# [8] = 70 μM α-synuclein, 100 μM compound, 37° C.
smiles,measurement,setting,value
"N#Cc1c(O)nc(-c2cccc([N+](=O)[O-])c2)c([N+](=O)[O-])c1C(F)(F)F [compound D, 2-hydroxy-5-nitro-6-(3-nitrophenyl)-4-(trifluoromethyl)nicotinonitrile]",inhibition of human A30P mutant α-synuclein aggregation (thioflavin-T fluorescence),[1],inhibits
same,α-synuclein-YFP protein inclusions in muscle cells of the worms,[2],significantly decreased
same,inhibition of human wild-type α-synuclein aggregation (scattering at 300 nm and 340 nm),[3],inhibits
same,inhibition of human H50Q mutant α-synuclein aggregation (thioflavin-T fluorescence),[4],inhibits
same,number and size of α-synuclein fibrils compared to control (TEM),[5],significant decrease in both number and size of α-synuclein fibrils
same,delay of halftime of aggregation relative to the control,[6]; [8],3 h
same,inhibition of α-synuclein aggregation at the end of the aggregation reaction relative to the control (thioflavin-T fluorescence),[6]; [8],32.4%
same,anti-aggregation activity in titration assays,"[6]; 200, 150, 100, 75 and 25 μM compound, 70 μM α-synuclein",clear dose-dependent anti-aggregation activity
same,"k1 (nucleation rate constant), Finke-Watzky two-step model",[6]; fitted aggregation curves,decreased
same,"k2 (growth rate constant), Finke-Watzky two-step model",[6]; fitted aggregation curves,decreased
same,activity at sub-stoichiometric protein:compound ratios,"[6]; titration assay, 70 μM α-synuclein",showed activity
same,CC50 at 72 h,[7],> 700 µM
